In article PMC12019328, “Discovery of an ApoE4-targeted small-molecule SirT1 enhancer for the treatment of Alzheimer’s disease” (Scientific Reports, 2025):
“And” between values parts separate entries of the source, which are not always exact repeats. Equal values may be shown once.

Columns and labels:
[1] = test system: hippocampal proteins; assay: Global proteomics on hippocampal brain tissue; type: in vivo, mice
Description: Hippocampal brain tissue from both DDL-218- and vehicle-treated mice underwent global proteomics analysis, as described in Supplementary Methods.
Liquid chromatography tandem mass spectrometry (LC-MS/MS) was used for proteomic analysis.
Proteins from hippocampal tissue from mice treated with either DDL-218 or vehicle were diluted in T-PER buffer and concentrations adjusted after BCA protein quantitation assay (Thermo Fisher Scientific). The protein disulfide bonds were reduced and alkylated by treatment with 10 mM tris (2-carboxyethyl) phosphine (TCEP) and 40 mM chloroacetamide (CAA) for 10 min at 95°C. SP3 beads were added to each sample concentrated at 25 μL of beads for 100 μg of protein. Samples were washed 3 times with 2x the sample volume of 80% ethanol in the DynaMag™-2 Magnet and protein solutions diluted 5-fold with 50 mM TEAB.
Trypsin was added in a 1:100 (mass trypsin:mass total protein) ratio to target proteins, and the samples were incubated overnight on a rocker at 37°C.
Samples were centrifuged at 16,000 x g for 5 minutes at room temperature. A colorimetric peptide assay (Thermo Fischer Scientific) was run on a sample of each supernatant. The results were used to aliquot […] of protein from each sample, which were then lyophilized in the SpeedVac. Samples were reconstituted in 100mM TEAB, individually labelled using TMT Isobaric Label Reagent Set (Thermo Fischer Scientific), and incubated at room temperature for one hour. Each sample was then incubated at room temperature for 15 minutes with 5uL of 5% hydroxylamine and lyophilized in the SpeedVac. Subsequently, samples were reconstituted in 2% acetonitrile + 0.1% TFA, and a 5uL aliquot of each sample was pooled together. The pooled sample was desalted with C18 Stagetips made from Empore C18 solid phase extraction disks and lyophilized in the SpeedVac. It was then reconstituted in 2% acetonitrile + 0.1% Formic Acid (FA) and transferred to an autosampler vial. LC/MS2 was performed using a nanoLC and orbitrap mass analyzer using a C18 column and DDA/MS2 mass spectrometer method.
Samples were injected (5 μL) onto a reverse phase nanobore HPLC column (AcuTech Scientific, C18, 1.8 μm particle size, 360 μm x 20 cm, 150 μm ID), equilibrated in solvent E and eluted (500 nL/min) with an increasing concentration of solvent F (acetonitrile/water/FA, 98/2/0.1, v/v/v: min/% F; 0/0, 5/3, 18/7, […]
(Framingham, MA)). The effluent from the column was directed to a nanospray ionization source connected to a hybrid quadrupole-Orbitrap mass spectrometer (Q Exactive Plus, Thermo Fisher Scientific) operating in the positive ion data-dependent mode alternating between a full scan (m/z 350-1700, automated gain control (AGC) target 3 x 106, 50 ms maximum injection time, FWHM resolution 70,000 at m/z 200) and up to 10 MS/MS scans (quadrupole isolation of charge states ≥ 2, isolation width 0.7 Th) with optimized fragmentation conditions (normalized collision energy of 32, dynamic exclusion of 30 s, AGC target 1 x 105, 100 ms maximum injection time, FWHM resolution 35,000 at m/z 200). The raw data from both analyses was processed using Proteome Discoverer™ (version 2.4). Tryptic peptides containing amino acid sequences unique to individual proteins were used for identification/quantification of each protein.
Raw data was submitted to a database search using Proteome Discoverer 3.1 [ThermoFischer Scientific]. Using the results for TMT labeling efficiency, sample volumes were adjusted to achieve an equal ratio of protein across TMT labeled samples. Remaining samples were pooled in equal ratio, and the pooled sample was desalted and lyophilized in the SpeedVac overnight.
The pooled sample was fractionated using Pierce High pH Reversed-Phase Peptide Fractionation Kit (Thermo Fischer Scientific) according to the manufacturer’s protocol. The fractions were dried in the SpeedVac and reconstituted in 0.1% formic acid. Samples were transferred to autosampler vials and LC/MS2 was performed as previously described. […]

[2] = In vivo pharmacokinetic analysis, brain levels after oral gavage; set-up: species or system C57BL/6J mice; details: single time point one hour, oral gavage 30 mg/Kg, n = 1; 30 mg/kg
Description: […] One hour later, mice were euthanized by pentobarbital over-anesthesia and trans-cardial collection of blood for isolation of plasma by centrifugation at 10,000 x g for 10 min at 4 °C. Brain tissue was collected for analysis, frozen on dry ice and stored at -80 °C before analysis.
For LC/MS/MS analysis, tissue samples were homogenized in a bead beater using 5 volumes of ice-cold 80% acetonitrile (1/5; mg of tissue/ µL of 80% ACN). Solutions were clarified by centrifugation (16,000 x g, 5 min) and the supernatants were transferred to new tubes and lyophilized. Samples were reconstituted in 100 µL of 50/50/0.1 (water/acetonitrile/formic acid) before analysis via liquid chromatography-tandem mass spectrometry.
A 6460 triple quadrupole mass spectrometer (Agilent Technologies) coupled to a 1290 Infinity HPLC system (Agilent Technologies) with a Phenomenex analytical column (Kinetex 1.7 μm C18 100 Å 100 × 2.1 mm) was used for HPLC. The HPLC method utilized a mixture of solvent A (99.9/1 water/formic acid) and solvent B (99.9/1 acetonitrile/formic acid) and a gradient was used for the elution of the compounds (min/%B: 0/20, 3/20, 19/99, 20/99, 21/20, 30/20).
An internal standard (IS; Reserpine) was added to every sample to account for compound loss during sample processing. Standards were made in drug naïve brain and plasma with increasing amounts of DDL-214- (S1,S2: 0.1 pmol/ S3,S4: 1 pmol/ S5,S6: 10 pmol/ S7,S8: 100 pmol/ S9,S10: 1000 pmol). The standard curve was made by plotting the amount of each compound per standard vs. the ratio of measured chromatographic peak areas corresponding to DDL-214 (DDL-214 -/Reserpine). The trendline equation was then used to calculate the absolute concentrations of DDL-214/-218/-219 in brain tissue and plasma.

[3] = test system: NFYb mRNA in Kelly cells; assay: NFYb mRNA in Kelly neuroblastoma cells; type: cell-based, human; details: 5 µM, 24 h, vs DMSO
Description: Human neuroblastoma ‘Kelly’ cells (genotype APOE3/APOE4) were plated in 96-well plates at 50K cells per well and were grown overnight in RPMI 1640 supplemented with 2 mM Glutamine, 10% FBS and 1% Pen-Strep. Cells were treated with 5 µM DDL-214, -218, or -219; or DMSO vehicle (n = 8 per compound). Twenty-four hours later, medium was removed, cells washed and lysed as described above for N2a-E4 cells.
Total RNA was isolated from cells or brain tissue (Qiagen RNEasy kit). Total RNA (0.5–1.0 µg) mRNA was then converted to cDNA (SuperScript™ III First-Strand Synthesis SuperMix kit; Thermo Fisher), and gene mRNA levels were measured using a gene-specific qRT-PCR Taqman assays (Thermo Fisher). Gene mRNA levels were normalized to GAPDH mRNA levels measured either in the same cDNA sample or in the same qPCR reaction using multiplexing of gene-of-interest/VIC and GAPDH/FAM, normalized by the delta-delta-Ct method.

## CC(N)C(=O)OC(C)(C)Cc1ccncc1 (stereo not drawn) [DDL-218]
[1]; Cep170, hippocampal tissue
  Abundance Ratio (DDL218/Veh): 1.36
[1]; Fxyd7, hippocampal tissue
  Abundance Ratio (DDL218/Veh): 1.317
[1]; Luc7l2, hippocampal tissue
  Abundance Ratio (DDL218/Veh): 0.793
[1]; Nubpl, hippocampal tissue
  Abundance Ratio (DDL218/Veh): 1.374
[1]; Ptprn2, hippocampal tissue
  Abundance Ratio (DDL218/Veh): 1.411
[1]; Rpl31, hippocampal tissue
  Abundance Ratio (DDL218/Veh): 1.22
[1]; Rps20, hippocampal tissue
  Abundance Ratio (DDL218/Veh): 1.223
[1]; Scfd2, hippocampal tissue
  Abundance Ratio (DDL218/Veh): 1.338
[1]; Shisa6, hippocampal tissue
  Abundance Ratio (DDL218/Veh): 1.219
[1]; Tbc1d17, hippocampal tissue
  Abundance Ratio (DDL218/Veh): 1.25
[2]
  brain levels: ~ 8400 ng/g and 37.8 µM
[3]
  NFYb mRNA: significantly increases NFYb mRNA
